Our source for the Activity and inhibition values is ChEMBL document CHEMBL5052832, “Inhibition of ngly1 for the treatment of cancer” (2021).

The target in data set [1] is T1, Peptide-N(4)-(N-acetyl-beta-glucosaminyl)asparagine amidase (Homo sapiens) (UniProt Q96IV0).
T1 sequence (whole entry): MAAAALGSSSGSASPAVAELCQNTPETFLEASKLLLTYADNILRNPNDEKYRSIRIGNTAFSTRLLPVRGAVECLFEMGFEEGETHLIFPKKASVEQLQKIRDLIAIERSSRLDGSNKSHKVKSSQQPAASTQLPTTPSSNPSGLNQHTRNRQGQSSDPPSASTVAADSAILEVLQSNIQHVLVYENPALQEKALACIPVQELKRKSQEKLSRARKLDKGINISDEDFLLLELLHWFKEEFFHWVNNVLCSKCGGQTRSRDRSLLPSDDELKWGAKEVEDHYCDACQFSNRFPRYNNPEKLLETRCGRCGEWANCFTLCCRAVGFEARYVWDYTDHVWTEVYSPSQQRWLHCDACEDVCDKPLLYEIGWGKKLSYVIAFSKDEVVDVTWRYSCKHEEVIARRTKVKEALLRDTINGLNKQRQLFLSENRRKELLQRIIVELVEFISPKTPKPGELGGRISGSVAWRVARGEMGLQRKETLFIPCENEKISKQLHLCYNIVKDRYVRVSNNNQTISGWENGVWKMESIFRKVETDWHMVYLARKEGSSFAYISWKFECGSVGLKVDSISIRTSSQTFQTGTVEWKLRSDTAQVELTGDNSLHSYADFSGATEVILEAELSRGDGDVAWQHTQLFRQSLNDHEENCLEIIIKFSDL
Description: Inhibition of NGLY1 in human SK-MEL-2 cells at 200 uM assessed as increase in IFN-beta1 production measured after 48 hrs. It counts as cell-based.

Data set [2] deals with T1, Peptide-N(4)-(N-acetyl-beta-glucosaminyl)asparagine amidase (Homo sapiens). Description: Inhibition of NGLY1 in human HDF51 cells at 200 uM assessed as increase in IL-29 production measured after 48 hrs. It counts as cell-based.
Data set [3] is described as follows: Antiproliferative activity against human HDF418 cells at 10 to 1000 uM assessed as decrease in cell viability. The conditions noted are these: hdf418, 1000 µM, dose 10-1000 µM. Type of data set: toxicity, cell-based.
The target in data set [4] is T1, Peptide-N(4)-(N-acetyl-beta-glucosaminyl)asparagine amidase (Homo sapiens). Description: Inhibition of NGLY1 in human UACC-257 cells at 200 uM assessed as increase in IL-29 production measured after 48 hrs. It counts as cell-based.
Data set [5] has as its system SK-MEL-2. Put plainly: Antiproliferative activity against human SK-MEL-2 cells assessed as decrease in cell viability in presence of dacarbazine. Type of data set: functional, cell-based.
Data set [6] concerns UACC-257. Description: Antiproliferative activity against human UACC-257 cells at 10 to 1000 uM assessed as decrease in cell viability. Type of data set: functional, cell-based. The conditions noted are these: dose 10-1000 µM.
Data set [7] deals with T1, Peptide-N(4)-(N-acetyl-beta-glucosaminyl)asparagine amidase (Homo sapiens). Description: Inhibition of NGLY1 in human UACC-257 cells at 200 uM assessed as increase in IFN-beta1 production measured after 48 hrs. It counts as cell-based.
For data set [8] the target is unchanged. Description: Inhibition of NGLY1 in human HDF51 cells at 200 uM assessed as increase in IFN-beta1 production measured after 48 hrs. Type of data set: cell-based.
Data set [9] has the same target. Description: Inhibition of NGLY1 in human SK-MEL-2 cells at 200 uM assessed as increase in IL-29 production measured after 48 hrs. Type of data set: cell-based.
Data set [10] in a line: Antiproliferative activity against human HDF51 cells at 10 to 1000 uM assessed as decrease in cell viability. It counts as toxicity, cell-based. The conditions noted are these: hdf51, 1000 µM, dose 10-1000 µM.
In data set [11] the test system is UACC-257. Description: Antiproliferative activity against doxycycline-induced NGLY1 knocked down human UACC-257 cells at 20 uM in presence of dacarbazine assessed as decrease in growth inhibition after 72 hrs by MTT assay. It counts as functional, cell-based. A general note: Tetrazolium dyes change colour on reduction, which living cells bring about.
Data set [12] deals with SK-MEL-2. Put plainly: Antiproliferative activity against human SK-MEL-2 cells at 10 to 1000 uM assessed as decrease in cell viability. It counts as functional, cell-based. The conditions noted are these: dose 10-1000 µM.
Data set [13] concerns the target T1, Peptide-N(4)-(N-acetyl-beta-glucosaminyl)asparagine amidase (Homo sapiens). Description: Inhibition of NGLY1 in human HEK293T cells at 200 uM assessed as retention of N-glycans on full-length NFE2L1 measured by electrophoretic mobility shift assay. Type of data set: cell-based.
The subject of data set [14] is SK-MEL-2. Put plainly: Antiproliferative activity against human SK-MEL-2 cells assessed as decrease in cell viability in presence of bortezomib. Type of data set: functional, cell-based.
For the next data set, the system named is Malme-3M. Description: Antiproliferative activity against doxycycline-induced NGLY1 knocked down human Malme-3M cells at 20 uM in presence of dacarbazine assessed as decrease in growth inhibition after 72 hrs by MTT assay. Type of data set: functional, cell-based.

Activity calls are given as the source filed them. No cut-off for these calls is given here.

In the case of `C=CC(=O)N[C@@H](CC(=O)N[C@@H]1O[C@H](COC(C)=O)[C@@H](OC(C)=O)[C@H](OC(C)=O)[C@H]1NC(C)=O)C(=O)NCCC`, the result (in data set [1]; in data set [4]; in the data set on SK-MEL-2 [5]; in the data set on UACC-257 [6]; in [7]; in data set [9]) was Active. Further, the outcome in the data set on UACC-257 [11] and with SK-MEL-2 [12] was Active. The outcome in data set [2] and in data set [8] was inactive. The Activity entry in data set [3] and in data set [10] was “Non-Toxic” throughout.

Regarding `CCCNC(=O)[C@H](CC(=O)N[C@@H]1O[C@H](COC(C)=O)[C@@H](OC(C)=O)[C@H](OC(C)=O)[C@H]1NC(C)=O)NC(=O)CCl`, the inhibition result in data set [13] was “Active”. Further, the outcome (in [1]; with SK-MEL-2 [14]; in [4]; with UACC-257 [6]; in [7]; in the data set on Malme-3M) was Active. Also, the outcome (in data set [9]; in the data set with UACC-257 [11]; in the data set with SK-MEL-2 [12]) was Active. Further, the Activity result in data set [3] and in data set [10] was “Non-Toxic” in each case.

Take `C=CS(=O)(=O)N[C@@H](CC(=O)N[C@@H]1O[C@H](COC(C)=O)[C@@H](OC(C)=O)[C@H](OC(C)=O)[C@H]1NC(C)=O)C(=O)NCCC`: the outcome (in [1]; in [4]; in the data set on UACC-257 [6]; in [7]; in data set [9]; in the data set on UACC-257 [11]) was Active. Moreover, the outcome with SK-MEL-2 [12] was Active. In addition, the result in [2] and in data set [8] was inactive. The Activity entry in data set [3] and in data set [10] was “Non-Toxic” throughout.

Consider `CCCNC(=O)[C@H](CC(=O)N[C@@H]1O[C@H](COC(C)=O)[C@@H](OC(C)=O)[C@H](OC(C)=O)[C@H]1NC(C)=O)NC(=O)/C=C/CN(C)C`, for which the Activity entry in data set [3] and in [10] was “Non-Toxic” in each case. In addition, the result in the data set on UACC-257 [6], in the data set with UACC-257 [11] and in the data set on SK-MEL-2 [12] was Active.
